For nine molecules, TGI and GI50 results are on record in PubChem BioAssay (NCI).

Test systems include MDA-MB-231 breast; UACC-62 melanoma; DU-145 prostate; SF-268 CNS; IGROV1 ovarian; NCI-H23 lung; CCRF-CEM leukemia; HCC-2998 colon; SK-MEL-28 melanoma; OVCAR-4 ovarian.
What all share (test): growth of human tumour cells (NCI), 48 h

Several values for one entry are separate records, joined by “and”; a condition that tells them apart may be missing. Identical values can stand only once.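 Test compounds were applied to cells in 96-well plates for 48 hours at 5 doses. Here, GI50 denotes the concentration required for 50% inhibition of growth. At the TGI there is no net growth.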

As for `CCCNC(=O)OCc1c(COC(=O)NCCC)c(-c2ccc(Cl)c(Cl)c2)n2c1CCC2`, the TGI was 21.9 µM in the test on MDA-MB-231 breast; 13.3 µM in the test with UACC-62 melanoma; over 100 µM with DU-145 prostate; 21.5 µM in the test on SF-268 CNS; 5.54 µM with IGROV1 ovarian; 26.5 µM with NCI-H23 lung. In the test on CCRF-CEM leukemia, the TGI was found to be 7.95 µM.

As to `NNC(=O)c1cnn(-c2ccnc3c(C(F)(F)F)cccc23)c1N`, the GI50 in the test with MDA-MB-231 breast, with HCC-2998 colon, in the test on UACC-62 melanoma, with DU-145 prostate, with SF-268 CNS and in the test with SK-MEL-28 melanoma was over 100 µM each time. Further, the GI50 with IGROV1 ovarian, with NCI-H23 lung, in the test on CCRF-CEM leukemia and in the test on OVCAR-4 ovarian was over 100 µM throughout. In addition, the TGI in the test with MDA-MB-231 breast, in the test on HCC-2998 colon, in the test on UACC-62 melanoma, with DU-145 prostate, in the test on SF-268 CNS and in the test with SK-MEL-28 melanoma was over 100 µM throughout. The TGI with IGROV1 ovarian, with NCI-H23 lung, in the test on CCRF-CEM leukemia and in the test with OVCAR-4 ovarian was over 100 µM in each case.

Take `CN(C)CCNc1nc2ccccc2c2[nH]c3ccccc3c12`: the GI50 in the test on MDA-MB-231 breast was 1.22 µM; with HCC-2998 colon, 0.483 µM; in the test on UACC-62 melanoma, 1.36 µM; with DU-145 prostate, 1.06 µM; in the test with SF-268 CNS, 0.293 µM; in the test with SK-MEL-28 melanoma it was 1.98 µM. In addition, the values for the GI50 in the test with IGROV1 ovarian, in the test with NCI-H23 lung and with CCRF-CEM leukemia were 0.97 µM, 0.96 µM and 0.937 µM, respectively. The TGI worked out at 3.99 µM in the test with MDA-MB-231 breast; 2.38 µM with HCC-2998 colon; 3.55 µM with UACC-62 melanoma; 6.93 µM in the test with DU-145 prostate; 1.82 µM in the test with SF-268 CNS; 6.44 µM with SK-MEL-28 melanoma. The TGI in the test on IGROV1 ovarian was over 31.7 µM; in the test on NCI-H23 lung, 4.65 µM; in the test with CCRF-CEM leukemia it was 3.95 µM.

Take `O=C(O)CCCc1ccc(N(CCCl)CCCl)cc1`: the GI50 in the test on MDA-MB-231 breast is 265 µM; with DU-145 prostate it was 41.7 µM; with SF-268 CNS, 4.91 µM; in the test with SK-MEL-28 melanoma, 21.5 µM; in the test on IGROV1 ovarian it was 30.5 µM and 158 µM; in the test on CCRF-CEM leukemia, 0.881 µM. In addition, the GI50 with OVCAR-4 ovarian was 24.7 µM and 185 µM. Moreover, the TGI in the test on MDA-MB-231 breast is 334 µM and 606 µM; in the test with UACC-62 melanoma, 23.1 µM and 106 µM and 202 µM; in the test on DU-145 prostate, 590 µM and 191 µM; in the test on SF-268 CNS, 23.7 µM and 220 µM and 169 µM; in the test with SK-MEL-28 melanoma it was 42.1 µM and 267 µM; in the test on IGROV1 ovarian it was 65.3 µM and 352 µM and 321 µM. For the same molecule, the TGI in the test on CCRF-CEM leukemia was 34.2 µM and 170 µM and 18.6 µM; with OVCAR-4 ovarian, 43.5 µM and 327 µM and 284 µM.

With `COc1nc2c(cc1S(=O)(=O)c1ccccc1)CCc1c-2cnn1-c1ccccc1Cl`, the GI50 with MDA-MB-231 breast is 5.16 µM; in the test on HCC-2998 colon it was over 100 µM; in the test with UACC-62 melanoma, 7.29 µM; with DU-145 prostate, over 100 µM; in the test with SF-268 CNS it was 17 µM; in the test on SK-MEL-28 melanoma, over 100 µM. Moreover, the GI50 with IGROV1 ovarian was over 100 µM; in the test on CCRF-CEM leukemia, 7.84 µM; in the test on OVCAR-4 ovarian, 7.3 µM. Also, the TGI in the test on MDA-MB-231 breast, in the test on HCC-2998 colon, in the test on UACC-62 melanoma, in the test with DU-145 prostate, with SF-268 CNS and in the test with SK-MEL-28 melanoma was over 100 µM each time. The TGI with IGROV1 ovarian, with CCRF-CEM leukemia and with OVCAR-4 ovarian was over 100 µM throughout.

`CCOC(=O)c1cc(-c2ccc([N+](=O)[O-])cc2)n(-c2ccc(C(=O)O)c(O)c2)c1C`: the GI50 in the test with MDA-MB-231 breast was 10.3 µM; in the test on UACC-62 melanoma, 3.95 µM; with DU-145 prostate, 4.55 µM; with SF-268 CNS, 4.69 µM; with SK-MEL-28 melanoma, 3.81 µM; in the test with IGROV1 ovarian it was 4.42 µM. For the same molecule, the GI50 was 3.18 µM in the test on NCI-H23 lung, 2.75 µM in the test on CCRF-CEM leukemia and 4.11 µM with OVCAR-4 ovarian. In addition, the TGI in the test with MDA-MB-231 breast is 29.9 µM; with UACC-62 melanoma it was 15.4 µM; with DU-145 prostate, 17.5 µM; in the test with SF-268 CNS, 19.6 µM; with SK-MEL-28 melanoma, 14.4 µM; with IGROV1 ovarian, 19.2 µM. In addition, the TGI with NCI-H23 lung was 13.7 µM; in the test with CCRF-CEM leukemia, over 100 µM; in the test with OVCAR-4 ovarian, 19.7 µM.

`O=C(O)Cc1c[nH]c2ccc(F)cc12`: the TGI in the test on MDA-MB-231 breast, in the test on HCC-2998 colon, in the test with UACC-62 melanoma, in the test on DU-145 prostate, with SK-MEL-28 melanoma and in the test with IGROV1 ovarian was over 100 µM each time. Besides, the TGI with NCI-H23 lung, in the test with CCRF-CEM leukemia and in the test with OVCAR-4 ovarian was over 100 µM each time.

Regarding `Cc1c(N2C(=O)/C(=C\c3ccccc3O)N=C2c2ccccc2)c(=O)n(-c2ccccc2)n1C`, the GI50 is 41.9 µM with MDA-MB-231 breast; over 100 µM with HCC-2998 colon; 53.9 µM with UACC-62 melanoma; 87.4 µM in the test on DU-145 prostate; 29.8 µM in the test on SF-268 CNS; over 100 µM in the test with SK-MEL-28 melanoma. Besides, the results for the GI50 with IGROV1 ovarian, with NCI-H23 lung and with OVCAR-4 ovarian were 23.8 µM, over 100 µM and over 100 µM, respectively. In addition, the TGI in the test on MDA-MB-231 breast, with HCC-2998 colon, in the test on UACC-62 melanoma, in the test on DU-145 prostate, in the test with SF-268 CNS and in the test on SK-MEL-28 melanoma was over 100 µM in each case. The TGI in the test with IGROV1 ovarian, in the test with NCI-H23 lung and with OVCAR-4 ovarian was over 100 µM throughout.

Take `CCCCCCCCCCCCOC1C(CNCC2OC3OC(C)(C)OC3C2NC(=O)Nc2ccc(C(=O)OCC)cc2)OC2OC(C)(C)OC21` (stereo unspecified): the GI50 in the test with MDA-MB-231 breast was 1.77 µM; in the test with HCC-2998 colon, 1.8 µM; in the test with UACC-62 melanoma, 3.39 µM; with DU-145 prostate it was 1.89 µM; in the test on SF-268 CNS it was 1.63 µM; in the test with SK-MEL-28 melanoma, 1.97 µM. Further, the GI50 is 2.7 µM in the test with IGROV1 ovarian, 8.34 µM with NCI-H23 lung and 1.87 µM in the test with OVCAR-4 ovarian. For the same molecule, the TGI with MDA-MB-231 breast is 3.33 µM; in the test with HCC-2998 colon it was 3.23 µM; in the test with UACC-62 melanoma, 12.2 µM; with DU-145 prostate it was 3.73 µM; in the test with SF-268 CNS, 3.24 µM; in the test with SK-MEL-28 melanoma, 4.3 µM. Besides, the figures for the TGI in the test on IGROV1 ovarian, in the test on NCI-H23 lung and in the test on OVCAR-4 ovarian were 7.37 µM, 21.5 µM and 4.25 µM, respectively.
